Measured values from patent US4556715A, “Nicotinic acid derivatives” (Kyorin Pharmaceutical Co., Ltd., priority 1980, dated 1985).
Read-outs that look alike come from different tables or passages of the source.

Assays:
[1] = system: serum and liver lipid levels in normal rats; test: Effects on relative liver weight, serum and liver lipid levels in normal rats (100 mg/kg, 7 days); assay type: in vivo, Male Wistar strain rats
Method: (1) Effects on relative liver weight, serum and liver lipid levels in normal rats
Male Wistar strain rats, weighing 180-210 g were orally administered the present compounds (X=Cl, n1 =2, 3, 4 and n2 =1) and 4-(4-chlorobenzyloxy)benzyl nicotinate (KCD-232), being X=Cl, n1 =1, n2 =1, respectively, which were suspended in 0.5% carboxymethyl cellulose (CMC) solution once a day at a dose of 100 mg/kg b.w. for 7 days. The last administration was occured in rats fasted overnight. At 4 hr later blood was withdrawn from jugular vein, clotted and centrifuged to obtain serum. The liver was rapidly removed and weighed. Total lipids were extracted from the serum and liver, and cholesterol (Ch), triglycerides (TG) and phospholipids (PL) levels were determined.

[2] = system: serum and liver lipid levels in rats; test: Serum and liver lipid levels and relative liver weight in rats (100 mg/kg, 10 days); assay type: in vivo, Male rats of the Wistar strain; conditions: for response vs control in vivo at 100 mg/kg: Rattus norvegicus, po; for response vs control in vivo at 100 mg/kg / Relative liver weight, relative to Control (100): in parentheses, Control = (100); for Liver lipid levels Ch / Liver lipid levels PL / Liver lipid levels TG / Relative liver weight / Serum lipid levels Ch / Serum lipid levels PL / Serum lipid levels TG: Mean ± S.E. (n = 9)
Method: (2) Male rats of the Wistar strain weighing 160-180 g were fed a stock deit (CE-2, Japan CLEA, Tokyo) and water ad libitum. The present compounds and KCD-232 were suspended, respectively, in a 0.5% of CMC solution and give orally to rats once a day at a dose of 100 mg/kg b.w. for 10 days.
Control rats were received the 0.5% CMC solution alone. The diet was withdrawn immediately after the last administration of compounds. Animals were sacrificed by decapitation 4 hr after the last administration and blood was collected, clotted and centrifuged to obtain serum. The liver was excised quickly and weighed. Total lipids were extracted from the serum and liver, and the levels of Ch, TG and PL were determined colorimetrically.

in vivo = conditions: mouse, po, p o, male ICR mice
Text: The present compounds were given to 6 week-old male mice of the ICR strain and their acute toxicity was examined.

[3] = system: serum and liver lipid levels in rats; test: Serum and liver lipid levels and relative liver weight in rats (25 mg/kg, 10 days); assay type: in vivo, male Wistar rats; conditions: Table 4; for Liver lipid levels Ch / Liver lipid levels PL / Liver lipid levels TG / Relative liver weight / Serum lipid levels Ch / Serum lipid levels PL / Serum lipid levels TG: 25 mg/kg p.o. 10 days, Mean ± S.E. (n = 7); for Liver lipid levels Ch, relative to Control (100) / Liver lipid levels PL, relative to Control (100) / Liver lipid levels TG, relative to Control (100) / Relative liver weight, relative to Control (100) / Serum lipid levels Ch, relative to Control (100) / Serum lipid levels PL, relative to Control (100) / Serum lipid levels TG, relative to Control (100): in parentheses
Method: (3) The present compounds and KCD-232 were orally given to male Wistar rats weighing 160-180 g once a day at a dose of 25 mg/kg b.w. for 10 days. Rats were subjected to fast for 4 hr immediately after the last administration of compounds, thereafter they were sacrificed by decapitation and blood was collected, clotted and centrifuged to obtain serum. The liver was removed quickly and weighed. Total lipids were extracted from the serum and liver, and then the levels of total Ch, TG and PL were determined with colorimetric methods.

[4] = Table 1, 100 mg/kg p.o. 7 days, fasted overnight, mean ± S.E. (n = 6)
[5] = Table 1, in parentheses, Control = (100)
[6] = 240 h, Table 2, read-out: Liver lipid levels PL, relative to Control (100)
[7] = Table 2, read-out: Liver lipid levels Ch, relative to Control (100)
[8] = Table 2, read-out: Liver lipid levels TG, relative to Control (100)
[9] = Table 2, read-out: Serum lipid levels Ch, relative to Control (100)
[10] = Table 2, read-out: Serum lipid levels PL, relative to Control (100)
[11] = Table 2, read-out: Serum lipid levels TG, relative to Control (100)
[12] = Table 2, 100 mg/kg p.o. 10 days
[13] = 240 h, Table 3, read-out: Liver lipid levels PL, relative to Control (100)
[14] = Table 3, read-out: Liver lipid levels Ch, relative to Control (100)
[15] = Table 3, read-out: Liver lipid levels TG, relative to Control (100)
[16] = Table 3, read-out: Serum lipid levels Ch, relative to Control (100)
[17] = Table 3, read-out: Serum lipid levels PL, relative to Control (100)
[18] = Table 3, read-out: Serum lipid levels TG, relative to Control (100)
[19] = Table 3, 100 mg/kg p.o. 10 days

O=C(OCc1ccc(OCCCCc2ccc(Cl)cc2)cc1)c1cccnc1 [n1=4, n2=1, 4-[4-(4-chlorophenyl)butoxy]benzyl nicotinate]
serum Ch, TG and PL (in words) ([1]; 100 mg/kg p.o. 7 days, compared with control): significantly reduced serum Ch, TG and PL
reduction of liver TG level compared with control ([1]; 100 mg/kg p.o. 7 days, p<0.05): 32%
Liver lipid levels Ch [1, 4]: 3.43 ± 0.10 mg/g liver
Liver lipid levels PL [1, 4]: 30.2 ± 1.4 mg/g liver
Liver lipid levels TG [1, 4]: 5.06 ± 1.21 mg/g liver
Serum lipid levels Ch [1, 4]: 45.3 ± 3.8 mg/dL
Serum lipid levels PL [1, 4]: 60.4 ± 4.8 mg/dL
Serum lipid levels TG [1, 4]: 16 ± 3.2 mg/dL
Relative liver weight ([1]; Table 1, 100 mg/kg p.o. 7 days, mean ± S.E. (n = 6)): 3.16 ± 0.05 g/100 g b.w.
Liver lipid levels Ch, relative to Control (100) [1, 5]: 97
Liver lipid levels PL, relative to Control (100) [1, 5]: 82
Liver lipid levels TG, relative to Control (100) [1, 5]: 69
Relative liver weight, relative to Control (100) [1, 5]: 102
Serum lipid levels Ch, relative to Control (100) [1, 5]: 60
Serum lipid levels PL, relative to Control (100) [1, 5]: 59
Serum lipid levels TG, relative to Control (100) [1, 5]: 47
lipid lowering effects compared with KCD-232 (in words) ([2]; 100 mg/kg p.o. 10 days): the lipid lowering effects were superior to that of KCD-232
response vs control in vivo at 100 mg/kg [2, 6]: 107%
response vs control in vivo at 100 mg/kg [2, 7]: 94.4%
response vs control in vivo at 100 mg/kg [2, 8]: 80.5%
response vs control in vivo at 100 mg/kg [2, 9]: 67.2%
response vs control in vivo at 100 mg/kg [2, 10]: 60.9%
response vs control in vivo at 100 mg/kg [2, 11]: 24.2%
Liver lipid levels Ch [2, 12]: 2.87 ± 0.13 mg/g liver
Liver lipid levels PL [2, 12]: 40.8 ± 0.7 mg/g liver
Liver lipid levels TG [2, 12]: 5.06 ± 0.69 mg/g liver
Relative liver weight [2, 12]: 4.04 ± 0.10 g/100 g b.w.
Serum lipid levels Ch [2, 12]: 58.3 ± 3.3 mg/dL
Serum lipid levels PL [2, 12]: 90.5 ± 4.6 mg/dL
Serum lipid levels TG [2, 12]: 29.9 ± 2.3 mg/dL
Relative liver weight, relative to Control (100) ([2]; Table 2): 105
LD50 (in vivo): > 4000 mg/kg

O=C(OCCCCCCc1ccc(OCc2ccc(Cl)cc2)cc1)c1cccnc1 [n1=1, n2=6, 6-[4-(4-Chlorobenzyloxy)phenyl]hexyl nicotinate]
response vs control in vivo at 100 mg/kg [2, 13]: 106%
response vs control in vivo at 100 mg/kg [2, 14]: 107%
response vs control in vivo at 100 mg/kg [2, 15]: 83.7%
response vs control in vivo at 100 mg/kg [2, 16]: 75.3%
response vs control in vivo at 100 mg/kg [2, 17]: 68.9%
response vs control in vivo at 100 mg/kg [2, 18]: 32.1%
Liver lipid levels Ch [2, 19]: 2.48 ± 0.10 mg/g liver
Liver lipid levels PL [2, 19]: 38.5 ± 0.7 mg/g liver
Liver lipid levels TG [2, 19]: 6.01 ± 0.76 mg/g liver
Relative liver weight [2, 19]: 3.72 ± 0.06 g/100 g b.w.
Serum lipid levels Ch [2, 19]: 73.5 ± 2.3 mg/dL
Serum lipid levels PL [2, 19]: 107 ± 3.1 mg/dL
Serum lipid levels TG [2, 19]: 40.3 ± 3.5 mg/dL
Relative liver weight, relative to Control (100) ([2]; Table 3): 98
Liver lipid levels Ch [3]: 2.83 ± 0.18 mg/g liver
Liver lipid levels PL [3]: 38.8 ± 1.1 mg/g liver
Liver lipid levels TG [3]: 5.48 ± 0.93 mg/g liver
Relative liver weight [3]: 3.91 ± 0.09 g/100 g b.w.
Serum lipid levels Ch [3]: 70 ± 5.5 mg/dL
Serum lipid levels PL [3]: 100 ± 5.9 mg/dL
Serum lipid levels TG [3]: 33.5 ± 2.5 mg/dL
Liver lipid levels Ch, relative to Control (100) [3]: 87.1
Liver lipid levels PL, relative to Control (100) [3]: 102.1
Liver lipid levels TG, relative to Control (100) [3]: 73.7
Relative liver weight, relative to Control (100) [3]: 111
Serum lipid levels Ch, relative to Control (100) [3]: 89.3
Serum lipid levels PL, relative to Control (100) [3]: 92.5
Serum lipid levels TG, relative to Control (100) [3]: 88.6
LD50 (in vivo): > 4000 mg/kg

O=C(OCCCc1ccc(OCc2ccc(Cl)cc2)cc1)c1cccnc1 [n1=1, n2=3, 3-[4-(4-Chlorobenzyloxy)phenyl]propyl nicotinate]
response vs control in vivo at 100 mg/kg [2, 13]: 96.1%
response vs control in vivo at 100 mg/kg [2, 14]: 97.8%
response vs control in vivo at 100 mg/kg [2, 15]: 73%
response vs control in vivo at 100 mg/kg [2, 16]: 83.7%
response vs control in vivo at 100 mg/kg [2, 17]: 79.4%
response vs control in vivo at 100 mg/kg [2, 18]: 63.3%
Liver lipid levels Ch [2, 19]: 2.27 ± 0.09 mg/g liver
Liver lipid levels PL [2, 19]: 34.8 ± 0.5 mg/g liver
Liver lipid levels TG [2, 19]: 5.24 ± 0.40 mg/g liver
Relative liver weight [2, 19]: 3.70 ± 0.05 g/100 g b.w.
Serum lipid levels Ch [2, 19]: 81.7 ± 2.7 mg/dL
Serum lipid levels PL [2, 19]: 124 ± 5.5 mg/dL
Serum lipid levels TG [2, 19]: 79.5 ± 10.4 mg/dL
Relative liver weight, relative to Control (100) ([2]; Table 3): 98
Liver lipid levels Ch [3]: 3.23 ± 0.17 mg/g liver
Liver lipid levels PL [3]: 38.2 ± 0.5 mg/g liver
Liver lipid levels TG [3]: 3.80 ± 0.50 mg/g liver
Relative liver weight [3]: 3.53 ± 0.08 g/100 g b.w.
Serum lipid levels Ch [3]: 66.4 ± 5.3 mg/dL
Serum lipid levels PL [3]: 85.8 ± 4.8 mg/dL
Serum lipid levels TG [3]: 29.2 ± 1.7 mg/dL
Liver lipid levels Ch, relative to Control (100) [3]: 99.4
Liver lipid levels PL, relative to Control (100) [3]: 100.5
Liver lipid levels TG, relative to Control (100) [3]: 51.1
Relative liver weight, relative to Control (100) [3]: 100
Serum lipid levels Ch, relative to Control (100) [3]: 84.7
Serum lipid levels PL, relative to Control (100) [3]: 79.3
Serum lipid levels TG, relative to Control (100) [3]: 77.2
LD50 (in vivo): > 4000 mg/kg

O=C(OCc1ccc(OCCCCCCc2ccc(Cl)cc2)cc1)c1cccnc1 [n1=6, n2=1, 4-[6-(4-Chlorophenyl)hexyloxy]benzyl nicotinate]
response vs control in vivo at 100 mg/kg [2, 6]: 109%
response vs control in vivo at 100 mg/kg [2, 7]: 94.4%
response vs control in vivo at 100 mg/kg [2, 8]: 73.9%
response vs control in vivo at 100 mg/kg [2, 9]: 74.6%
response vs control in vivo at 100 mg/kg [2, 10]: 65.9%
response vs control in vivo at 100 mg/kg [2, 11]: 25.6%
Liver lipid levels Ch [2, 12]: 2.87 ± 0.08 mg/g liver
Liver lipid levels PL [2, 12]: 41.6 ± 0.5 mg/g liver
Liver lipid levels TG [2, 12]: 4.67 ± 0.32 mg/g liver
Relative liver weight [2, 12]: 4.17 ± 0.07 g/100 g b.w.
Serum lipid levels Ch [2, 12]: 64.7 ± 3 mg/dL
Serum lipid levels PL [2, 12]: 97.8 ± 3.8 mg/dL
Serum lipid levels TG [2, 12]: 31.7 ± 2.8 mg/dL
Relative liver weight, relative to Control (100) ([2]; Table 2): 108
Liver lipid levels Ch [3]: 3.14 ± 0.17 mg/g liver
Liver lipid levels PL [3]: 38.9 ± 0.8 mg/g liver
Liver lipid levels TG [3]: 3.03 ± 0.41 mg/g liver
Relative liver weight [3]: 3.91 ± 0.08 g/100 g b.w.
Serum lipid levels Ch [3]: 54.2 ± 4.9 mg/dL
Serum lipid levels PL [3]: 72.2 ± 5.6 mg/dL
Serum lipid levels TG [3]: 24 ± 2.1 mg/dL
Liver lipid levels Ch, relative to Control (100) [3]: 96.7
Liver lipid levels PL, relative to Control (100) [3]: 102.4
Liver lipid levels TG, relative to Control (100) [3]: 40.7
Relative liver weight, relative to Control (100) [3]: 111
Serum lipid levels Ch, relative to Control (100) [3]: 69.1
Serum lipid levels PL, relative to Control (100) [3]: 66.7
Serum lipid levels TG, relative to Control (100) [3]: 63.5
LD50 (in vivo): > 4000 mg/kg
